Source: patent US5631222A, “Endothelin-antagonizing peptide” (Kyowa Hakko Kogyo Co., Ltd., priority 1993, dated 1997)
Positions of bridges follow the written chain, without caps; N, C: chain ends. Non-standard residues stand in square brackets, D forms with d. Residues, ends and D or L forms follow the SMILES beside them. 2Thi = N[C@@H](Cc1cccs1)C(=O)O; Cha = N[C@@H](CC1CCCCC1)C(=O)O; NMeL = CN[C@@H](CC(C)C)C(=O)O; Abu = CC[C@H](N)C(=O)O

Biological target: T1, endothelin receptor (Bos taurus, UniProt P28088)
T1 construct: the suspension was used as a membrane fraction liquid; from tissue; host or cells: bovine cerebellum membrane fraction
T1 sequence (P28088 27-441): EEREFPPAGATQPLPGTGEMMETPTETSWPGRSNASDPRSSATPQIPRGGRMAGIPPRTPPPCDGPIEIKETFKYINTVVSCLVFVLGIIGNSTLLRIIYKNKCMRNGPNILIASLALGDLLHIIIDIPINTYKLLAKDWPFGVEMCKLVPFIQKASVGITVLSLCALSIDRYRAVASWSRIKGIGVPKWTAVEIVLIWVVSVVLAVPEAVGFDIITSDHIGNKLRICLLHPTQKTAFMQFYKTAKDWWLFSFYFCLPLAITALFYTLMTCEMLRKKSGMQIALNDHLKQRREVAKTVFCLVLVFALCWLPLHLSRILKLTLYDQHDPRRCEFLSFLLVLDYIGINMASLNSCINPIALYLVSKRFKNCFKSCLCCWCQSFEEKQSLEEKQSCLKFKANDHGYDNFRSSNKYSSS
Test: Endothelin receptor-antagonizing activity: inhibition of 125I-endothelin-1 binding to bovine cerebellum membrane fraction
Settings: 125I-Endothelin-1, bovine cerebellum membrane fraction, 25° C. for 2 hours; read-out: IC50: Concentration causing 50% inhibition of endothelin1 binding
Protocol: Bovine cerebellum tissue was homogenized at 4° C. by using POLYTRON (type PT10/35, manufactured by Kinematic Gmbh Co.) in a buffer solution A (1 mM NaHCO3, 5 mM ethylenediaminetetraacetic acid, 5 μg/ml leupeptin, 5 μg/ml pepstatin A, 40 μM phenylmethylsulfonyl fluoride, pH 8.3).
The obtained suspension was centrifuged for 10 minutes at 8,000 G and 4° C., and the resulting supernatant was centrifuged for 60 minutes at 40,000 G and 4° C. to obtain pellets. The obtained pellets were suspended in a buffer solution A and again centrifuged for 60 minutes at 40,000 G and 4° C. The resulting solid substance was prepared as a suspension containing 2 mg/ml of protein, and the suspension was used as a membrane fraction liquid. […] These mixtures were incubated at 25° C. for 2 hours, and then filtered with a GF/B glass filter (produced by Whatman Co.). […] The inhibition ratio against endothelin receptor binding activity was calculated according to the following equation:
Inhibition ratio (%)=(C-A/C-B)×100
B: Radioactivity in the presence of unlabelled endothelin-1
C: Radioactivity in the absence of both of the compound shown in Table 2 and unlabelled endothelin-1

Compound | IC50
CC[C@H](C)[C@H](NC(=O)[C@H](Cc1cccs1)NC(=O)[C@@H](NC(=O)[C@H](CC(C)C)NC(=O)[C@H](Cc1c[nH]cn1)NC(=O)[C@@H](C)NC(=O)[C@H](Cc1ccccc1)NC(=O)[C@H](Cc1ccc(O)cc1)NC(=O)[C@@H](NC(=O)[C@H](Cc1c[nH]c2ccccc12)NC(=O)[C@H](CC(=O)O)NC(=O)[C@@H]1CCCN1C(=O)[C@H](C)NC(=O)[C@@H](NC(=O)CNC(=O)[C@H](Cc1c[nH]cn1)NC(=O)[C@H](Cc1c[nH]c2ccccc12)NC(=O)[C@H](CC(N)=O)NC(=O)CN)[C@@H](C)O)C(C)C)[C@@H](C)O)C(=O)N[C@@H](Cc1c[nH]c2ccccc12)C(=O)O [Compound 27, HGlyAsnTrpHisGlyThrAlaProAspTrpValTyrPheD-AlaHisLeuThrThiIleTrpOH] (H-GNWHGTAPDWVYF[dA]HLT[2Thi]IW-OH) | 4.9 nM
H-GNWHGTAPDWVYFAHLTYIW-OH [Compound 19] | 1.2 nM
H-VYFSHLDIIW-OH [Compound w, H-Val-Tyr-Phe-Ser-His-Leu-Asp-Ile-Ile-Trp-OH, reference compound] | > 1000 nM
H-GNWHGTAPDWVYFAHLDIIF-OH [Compound 5] | 11 nM
CC[C@H](C)[C@H](NC(=O)[C@H](CC(=O)O)NC(=O)[C@H](CC(C)C)NC(=O)[C@H](Cc1c[nH]cn1)NC(=O)[C@H](C)NC(=O)[C@H](Cc1ccccc1)NC(=O)[C@H](Cc1ccc(O)cc1)NC(=O)[C@@H](NC(=O)[C@H](Cc1c[nH]c2ccccc12)NC(=O)[C@@H]1CC(=O)NCC(=O)N[C@@H](CO)C(=O)N[C@@H](C)C(=O)N[C@@H](C)C(=O)N[C@@H](C(C)C)C(=O)N[C@@H](Cc2ccc(O)cc2)C(=O)N[C@@H](Cc2ccccc2)C(=O)N1)C(C)C)C(=O)N[C@H](C(=O)N[C@@H](Cc1c[nH]c2ccccc12)C(=O)O)[C@@H](C)CC [Compound 53] (GSAAVYFDWVYFAHLDIIW-OH; lactam N-8) | 2.4 nM
H-WHGTAPDWVYFAHLDIIW-OH [Compound 8, HTrpHisGlyThrAlaProAspTrpValTyrPheAlaHisLeuAspIleIleTrpOH] | 0.076 nM
CC[C@H](C)[C@H](NC(=O)[C@H](Cc1cccs1)NC(=O)[C@@H](NC(=O)[C@H](CC(C)C)NC(=O)[C@H](Cc1c[nH]cn1)NC(=O)[C@H](C)NC(=O)[C@H](Cc1ccccc1)NC(=O)[C@H](Cc1ccc(O)cc1)NC(=O)[C@@H]1CCCN1C(=O)[C@H](Cc1c[nH]c2ccccc12)NC(=O)[C@H](CC(=O)O)NC(=O)[C@@H]1CCCN1C(=O)[C@H](C)NC(=O)[C@@H](NC(=O)CNC(=O)[C@H](Cc1c[nH]cn1)NC(=O)[C@H](Cc1c[nH]c2ccccc12)NC(=O)[C@H](CC(N)=O)NC(=O)CN)[C@@H](C)O)[C@@H](C)O)C(=O)N[C@@H](Cc1c[nH]c2ccccc12)C(=O)O [Compound 48, HGlyAsnTrpHisGlyThrAlaProAspTrpProTyrPheAlaHisLeuThrThiIleTrpOH] (H-GNWHGTAPDWPYFAHLT[2Thi]IW-OH) | 5 nM
CC[C@H](NC(=O)[C@@H](NC(=O)[C@H](CC(C)C)NC(=O)[C@H](Cc1c[nH]cn1)NC(=O)[C@H](C)NC(=O)[C@H](Cc1ccccc1)NC(=O)[C@H](Cc1ccc(O)cc1)NC(=O)[C@@H](NC(=O)[C@H](Cc1c[nH]c2ccccc12)NC(=O)[C@H](CC(=O)O)NC(=O)[C@@H]1CCCN1C(=O)[C@H](C)NC(=O)[C@@H](NC(=O)CNC(=O)[C@H](Cc1c[nH]cn1)NC(=O)[C@H](Cc1c[nH]c2ccccc12)NC(=O)[C@H](CC(N)=O)NC(=O)CN)[C@@H](C)O)C(C)C)[C@@H](C)O)C(=O)N[C@H](C(=O)N[C@@H](Cc1c[nH]c2ccccc12)C(=O)O)[C@@H](C)CC [Compound 15, HGlyAsnTrpHisGlyThrAlaProAspTrpValTyrPheAlaHisLeuThrAbuIleTrpOH] (H-GNWHGTAPDWVYFAHLT[Abu]IW-OH) | 0.11 nM
H-HGTAPDWVYFAHLDIIW-OH [Compound 9, HHisGlyThrAlaProAspTrpValTyrPheAlaHisLeuAspIleIleTrpOH] | 0.088 nM
CC[C@H](C)[C@H](NC(=O)[C@H](Cc1cccs1)NC(=O)[C@@H](NC(=O)[C@H](CC(C)C)NC(=O)[C@@H](Cc1c[nH]c2ccccc12)NC(=O)[C@H](C)NC(=O)[C@H](Cc1ccccc1)NC(=O)[C@H](Cc1ccc(O)cc1)NC(=O)[C@@H](NC(=O)[C@H](Cc1c[nH]c2ccccc12)NC(=O)[C@H](CC(=O)O)NC(=O)[C@@H]1CCCN1C(=O)[C@H](C)NC(=O)[C@@H](NC(=O)CNC(=O)[C@H](Cc1c[nH]cn1)NC(=O)[C@H](Cc1c[nH]c2ccccc12)NC(=O)[C@H](CC(N)=O)NC(=O)CN)[C@@H](C)O)C(C)C)[C@@H](C)O)C(=O)N[C@@H](Cc1c[nH]c2ccccc12)C(=O)O [Compound 28, HGlyAsnTrpHisGlyThrAlaProAspTrpValTyrPheAlaD-TrpLeuThrThiIleTrpOH] (H-GNWHGTAPDWVYFA[dW]LT[2Thi]IW-OH) | 89 nM
H-GDWKGTSPDWVYFAHLDIIW-OH [Compound 6, HGlyAspTrpLysGlyThrSerProAspTrpValTyrPheAlaHisLeuAsplleIleTrpOH] | 0.11 nM
CC[C@H](C)[C@H](NC(=O)[C@H](CC1CCCCC1)NC(=O)[C@@H](NC(=O)[C@H](CC(C)C)NC(=O)[C@H](Cc1c[nH]cn1)NC(=O)[C@H](C)NC(=O)[C@H](Cc1ccccc1)NC(=O)[C@H](Cc1ccc(O)cc1)NC(=O)[C@@H](NC(=O)[C@H](Cc1c[nH]c2ccccc12)NC(=O)[C@@H]1CSSC[C@H](N)C(=O)N[C@@H](CC(N)=O)C(=O)N[C@@H](Cc2c[nH]c3ccccc23)C(=O)N[C@@H](Cc2c[nH]cn2)C(=O)NCC(=O)N[C@@H]([C@@H](C)O)C(=O)N[C@@H](C)C(=O)N2CCC[C@H]2C(=O)N1)C(C)C)[C@@H](C)O)C(=O)N[C@@H](Cc1c[nH]c2ccccc12)C(=O)O [Compound 39] (H-CNWHGTAPCWVYFAHLT[Cha]IW-OH; disulfide 1-9) | 280 nM
H-GNWHGTAPDWYFAHLDIIW-OH [Compound 10, HGlyAsnTrpHisGlyThrAlaProAspTrpTyrPheAlaHisLeuAspIleIleTrpOH] | 0.57 nM
H-GNWHGTAPDAVYFAHLDIIW-OH [Compound 4, HGlyAsnTrPHisGlyThrAlaProAspAlaValTyrPheAlaHisLeuAspIleIleTrpOH] | 0.22 nM
CC[C@H](C)[C@H](NC(=O)[C@H](Cc1cccs1)NC(=O)[C@@H](NC(=O)[C@H](CC(C)C)NC(=O)[C@H](Cc1c[nH]cn1)NC(=O)[C@H](C)NC(=O)[C@H](Cc1ccccc1)NC(=O)[C@H](Cc1ccc(O)cc1)NC(=O)[C@@H](NC(=O)[C@H](Cc1c[nH]c2ccccc12)NC(=O)[C@H](CC(=O)O)NC(=O)[C@@H]1CCCN1C(=O)[C@H](C)NC(=O)[C@@H](NC(=O)CNC(=O)[C@H](Cc1c[nH]cn1)NC(=O)[C@H](Cc1c[nH]c2ccccc12)NC(=O)[C@H](CC(N)=O)NC(=O)CN)[C@@H](C)O)C(C)C)[C@@H](C)O)C(=O)N[C@H](Cc1c[nH]c2ccccc12)C(=O)O [Compound 42, HGlyAsnTrpHisGlyThrAlaProAspTrpValTyrPheAlaHisLeuThrThiIleD-TrpOH] (H-GNWHGTAPDWVYFAHLT[2Thi]I[dW]-OH) | 210 nM
H-GNWHGTAPDWVYFAHLTLIW-OH [Compound 13] | 2.9 nM
CC[C@H](C)[C@H](NC(=O)[C@H](CC(C)C)N(C)C(=O)[C@@H](NC(=O)[C@H](CC(C)C)NC(=O)[C@H](Cc1c[nH]cn1)NC(=O)[C@H](C)NC(=O)[C@H](Cc1ccccc1)NC(=O)[C@H](Cc1ccc(O)cc1)NC(=O)[C@@H](NC(=O)[C@H](Cc1c[nH]c2ccccc12)NC(=O)[C@H](CC(=O)O)NC(=O)[C@@H]1CCCN1C(=O)[C@H](C)NC(=O)[C@@H](NC(=O)CNC(=O)[C@H](Cc1c[nH]cn1)NC(=O)[C@H](Cc1c[nH]c2ccccc12)NC(=O)[C@H](CC(N)=O)NC(=O)CN)[C@@H](C)O)C(C)C)[C@@H](C)O)C(=O)N[C@@H](Cc1c[nH]c2ccccc12)C(=O)O [Compound 23, HGlyAsnTrpHisGlyThrAlaProAspTrpValTyrPheAlaHisLeuThrMeLeuIleTrpOH] (H-GNWHGTAPDWVYFAHLT[NMeL]IW-OH) | 54 nM
CC[C@H](C)[C@H](NC(=O)[C@H](Cc1cccs1)NC(=O)[C@@H](NC(=O)[C@H](CC(C)C)NC(=O)[C@H](Cc1c[nH]cn1)NC(=O)[C@H](C)NC(=O)[C@H](Cc1ccccc1)NC(=O)[C@H](Cc1ccc(O)cc1)NC(=O)[C@@H](NC(=O)[C@H](Cc1c[nH]c2ccccc12)NC(=O)[C@@H]1CC(=O)NCC(=O)N[C@@H](CC(N)=O)C(=O)N[C@@H](Cc2c[nH]c3ccccc23)C(=O)N[C@@H](Cc2c[nH]cn2)C(=O)NCC(=O)N[C@@H]([C@@H](C)O)C(=O)N[C@@H](C)C(=O)N2CCC[C@H]2C(=O)N1)C(C)C)[C@@H](C)O)C(=O)N[C@@H](Cc1c[nH]c2ccccc12)C(=O)O [Compound 41] (GNWHGTAPDWVYFAHLT[2Thi]IW-OH; lactam N-9) | 2.5 nM
H-GNWHGTAPDWFAHLDIIW-OH [Compound 11, HGlyAsnTrpHisGlyThrAlaProAspTrpPheAlaHisLeuAspIleIleTrpOH] | 6.1 nM
